# Experimental data as given in US20060286040A1, “Medicament compositions comprising a heterocyclic compound and an anticholinergic” (Kyowa Hakko Kogyo Co., Ltd., priority 2003, published 2006).
# Test system: guinea pig main bronchus
# Assay: EFS-induced cholinergic and tachykininergic contraction in the guinea pig main bronchus (organ bath)
# Settings: for Cholinergic Contraction, % of the first contraction / Tachykininergic contraction, % of the first contraction: EFS 30 V, 0.5 ms, 8 Hz, 15 s, 10 nmol/L tiotropium bromide and/or 30 μmol/L Compound 2, measured 20 min after addition, indomethacin 5 μmol/L, means ± S.E.M
# [1] = 10 nmol/L tiotropium bromide and/or 30 μmol/L Compound 2, 20 min after addition
Compound,Effect on EFS-induced tachykininergic contraction (in words) [1],"Cholinergic Contraction, % of the first contraction","Tachykininergic contraction, % of the first contraction",Effect on EFS-induced cholinergic contraction (in words) [1]
COc1ccc(C(=O)Cc2c(Cl)cncc2Cl)c2c1OC1(CCCC1)O2 [Compound 2],inhibited the tachykininergic contraction,105.8 ± 2.4 % of the first contraction,66.1 ± 6.5 % of the first contraction,–
tiotropium bromide,–,59.7 ± 6.3 % of the first contraction,90.9 ± 8.3 % of the first contraction,inhibited the cholinergic contraction
